Assay: Saturation solubilities of enhancers in PSAs
Assay type: physicochemical
[1] = in Duro-Tak 87-4098 (polyacrylate PSA)

| Saturation Solubilities [1] | Saturation Solubilities (in PIB PSA) | Compound |
| --- | --- | --- |
| 8 mg/g | 0.01 mg/g | C[S+](C)[O-] [DMSO, dimethyl sulfoxide] |
| 1000 mg/g | 785 mg/g | CCCCCCCCCCCCOC(=O)C(C)O (stereo not shown) [Lauryl Lactate, lauryl lactate] |
